From US20180148390A1, “METHOD AND COMPOSITION FOR RETAINING NUTRIENTS IN SOIL AT PLANTING SITES” (WaterScience, Inc., priority 2016, published 2018)
Values after ≈ are worked out from the molar mass of the structure shown.

Experiments:
physchem = conditions: for solubility: 25 °C, pH 7, water
Description: High solubility of naturally occurring positively charged amino acids are subject to runoff, which may be problematic. However, positively charged amino acids are better retained than negatively charged nitrate, sulfate, and phosphate which are poorly retained in the negatively charged soils.

[1] = Electro-potential of amino acid in deionized water against a hydrogen electrode; type: physicochemical; conditions: amino acid in 100 ml deionized water, electro-potential meter against hydrogen electrode
Description: After drying, 890.9 mg of the modified alanine (i.e., protonated alanine) was added to 100 ml of deionized water to form a modified alanine solution. The electro-potential of the modified alanine water mixture was measured with an electro-potential meter against a hydrogen electrode. […] 890.9 mg sample of unmodified alanine was added to 100 ml of deionized water.
890.9 mg sample of unmodified glutamic acid was added to 100 ml of deionized water.
After drying, 1902 mg of the modified leucine was added to 100 ml of deionized water to form a modified leucine solution. The electro-potential of the modified leucine water mixture was measured with an electro-potential meter against a Hydrogen electrode. […] 1312 mg sample of unmodified leucine was added to 100 ml of deionized water.

[2] = Column retention of amino acid on WS A201; type: physicochemical; conditions: for amount complexed and retained by the WS A 201 / amount passed through the column: 100 ml solution on 89 ml WS A201 column at 1.5 ml/min, displaced with 100 ml deionized water; for converted to cationic charge: from WS A201 column retention
Description: The modified alanine solution was added to 100 ml burette with 9 mm diameter at the rate of 1.5 ml/min. The column was filled with 89 ml of WS A201 (WaterScience, Inc., Peoria, Ill.) which has an anion exchange capacity of 2 EG Kg. To the burette was added 100 ml deionized water to displace the modified alanine. […] The 100 ml of deionized water containing 890.9 mg of unmodified alanine was added to another column containing fresh WS A 201. To the burette was also added 100 ml of deionized water to displace the unmodified alanine solution from the column.
The column was filled with 89 ml of WS A 201 which has an anion exchange capacity of 2 EG Kg. […] The 100 ml of deionized water containing 1471 mg of unmodified glutamic acid was added to another column containing fresh WS A 201. To the burette column was also added 100 ml of deionized water to displace the unmodified glutamic acid solution from the column.
The 1% modified leucine acid solution was added to 100 ml burette with 9 mm diameter at the rate of 1.5 ml/min. The column was filled with 89 ml of WS A 201 which has an anion exchange capacity of 2 EG Kg. To the burette was added 100 ml deionized water to displace the modified leucine. […] The 100 ml of deionized water containing 1312 mg of unmodified leucine was added to another column containing fresh WS A 201. To the burette was also added 100 ml of deionized water to displace the unmodified leucine solution from the column.

| electro-potential [1] [mV] | amount complexed and retained by the WS A 201 [2] [mg] | amount passed through the column [2] [mg] | converted to cationic charge [2] [%] | SMILES | solubility (physchem) [mg/mL] | reduction of solubility by modification with a weak base to pH 10 (physchem; pH 10) [%] |
| --- | --- | --- | --- | --- | --- | --- |
|  |  |  |  | N[C@@H](Cc1c[nH]cn1)C(=O)O [histidine] | 41.9 (≈ 270 mM) |  |
|  |  |  |  | NCCCC[C@H](N)C(=O)O [lysine] | 1000 (≈ 6840 mM) | 89 |
| 177 | 845.8 | 45.1 | 94.9 | C[C@H](N)C(=O)O [modified alanine, Protonated alanine] |  |  |
| 197 | 1246 | 66 | 95 | CC(CNC(=N)N)C[C@H](N)C(=O)O (some centres unmarked) [modified leucine, Guanidine modified leucine] |  |  |
|  | 37.3 | 853.6 |  | C[C@H](N)C(=O)O [unmodified alanine, alanine, reference compound] |  |  |
|  | 79 | 1392 |  | N[C@@H](CCC(=O)O)C(=O)O [unmodified glutamic acid, glutamic acid, reference compound] |  |  |
|  | 41 | 1271 |  | CC(C)C[C@H](N)C(=O)O [unmodified leucine, leucine, reference compound] |  |  |
